Patent US6159940A, “Method for modulating hemopoiesis” (Immunotech Developments Inc., priority 1999, dated 2000)

Legend:
[1] = Local irritating effect, rabbits; assay type: in vivo
From the text: The local irritating effect of H-Ile-Glu-Trp-OH was studied in 20 guinea pigs and 5 rabbits.

[2] = test system: mixed lymphocyte culture (H-2d anti H-2b); assay: Proliferation of mixed lymphocyte culture (MLC), 3H-thymidine; assay type: cell-based
Experimental: This experimental system is an in vitro the analog of the Graft Versus Host Disease reaction.
In the present series of experiments the reaction H-2d, anti H-2b was examined. The new combination responder-stimulator. Each variant was made in a triplet. Microcultures were incubated for 4 days, then 3H-thymidine was added; then the mixture was incubated for 16 more hours, and after its transfer to the filters, the amount of 3H-thymidine was determined. H-Ile-Glu-Trp-OH was added at the beginning of the incubation in different concentrations.

[3] = test system: hemopoietic progenitor cells; assay: Exogenous spleen colonies from irradiated bone marrow cells; assay type: in vivo, mice; conditions: day 9
Experimental: For this purpose, known methods using exogenous spleen colonies were applied. […] Different doses of the peptide were injected intravenously (i.v.), intraperitoneally (i.p.), or intramuscularly (i.m.) to lethally irradiated recipients an hour after the injections of irradiated bone marrow. Colonies were counted on day 9. 350 mice were used as test animals. The data for each group are the average of three tests.

[4] = test system: karyocytes in femoral bone marrow; assay: Bone marrow regeneration in irradiated mice (4 Gy), scheme 2; assay type: in vivo
Experimental: Irradiated mice (4 Gy) received intramuscular injections of the peptide in the dose of 10 μg/kg according to 2 schemes.
b) According to scheme 2, the peptide injections were made starting from the 3rd day after the irradiation, at the same time of maximum depletion of the pool of mature nucleated cells and the bone marrow. The groups of mice were formed in the same way as in the previous scheme. […] Tables 9 and 10 present the data on karyocyte and lymphocyte counts in blood (per 1 mm^3) of mice treated according to scheme 2.
The data in Table 11 reflect the process of bone marrow regeneration in control and test irradiated (4 Gy) mice treated with peptide according to scheme 2. The regeneration was equally intensive in all animal groups till the 11th day, from day 14 to day 18 the nucleated cells counts were considerably higher in the bone marrow of test mice.

**Q.** Which local irritating effect [1] does the source give for H-Ile-Glu-Trp-OH here?
**A.** no local irritating effect

**Q.** And the “proliferation of the allogenic lymphocytes” value ([2]; 0.1 μg/ml (FIG. 4))?
**A.** negligible inhibition of the proliferation

**Q.** And the “proliferation of the allogenic lymphocytes” value ([2]; 1, 10, and 20 μg/ml (FIG. 4))?
**A.** stimulation of proliferation

**Q.** What about the “Colony Count” value ([3]; bone marrow 1 Gy, 2.5 mcg/Kg i.v.) of the same substance?
**A.** 6.0 ± 0.7

**Q.** And the “Colony Count” value ([3]; bone marrow 1 Gy, 10 mcg/Kg i.m.)?
**A.** 10.6 ± 0.8

**Q.** What about the “Colony Count” value ([3]; bone marrow 1 Gy, 10 mcg/Kg i.p.) of the same substance?
**A.** 8.2 ± 0.7

**Q.** And the “Colony Count” value ([3]; bone marrow 1 Gy, 10 mcg/Kg i.v.)?
**A.** 8.7 ± 0.4

**Q.** And the “Colony Count” value ([3]; bone marrow 1 Gy, 25 mcg/Kg i.v.)?
**A.** 7.6 ± 0.4

**Q.** What about the “Colony Count” value ([3]; bone marrow 1 Gy, 50 mcg/Kg i.v.) of the same substance?
**A.** 7.1 ± 0.5

**Q.** What about the “Colony Count” value ([3]; bone marrow 1 Gy, 100 mcg/Kg i.v.) of the same substance?
**A.** 6.0 ± 0.5

**Q.** What about the “Colony Count” value ([3]; bone marrow 1 Gy, 200 mcg/Kg i.v.) of the same substance?
**A.** 5.3 ± 0.7

**Q.** What about the “Colony Count” value ([3]; bone marrow 1 Gy, 500 mcg/Kg i.v.) of the same substance?
**A.** 4.2 ± 0.3

**Q.** And the “Colony Count” value ([3]; bone marrow 3 Gy, 10 mcg/Kg i.v.)?
**A.** 2.3 ± 0.3

**Q.** What about the “Karyocyte Count in Femoral Bone Marrow” value ([4]; scheme 2, 1 Time, Day 7) of the same substance?
**A.** 16.4 ± 0.3 × 10^6

**Q.** What about the “Karyocyte Count in Femoral Bone Marrow” value ([4]; scheme 2, 1 Time, Day 11) of the same substance?
**A.** 17.9 ± 1.8 × 10^6

**Q.** And the “Karyocyte Count in Femoral Bone Marrow” value ([4]; scheme 2, 1 Time, Day 14)?
**A.** 18.7 ± 1.1 × 10^6

**Q.** And the “Karyocyte Count in Femoral Bone Marrow” value ([4]; scheme 2, 1 Time, Day 18)?
**A.** 18.0 ± 0.4 × 10^6

**Q.** What about the “Karyocyte Count in Femoral Bone Marrow” value ([4]; scheme 2, 1 Time, Day 21) of the same substance?
**A.** 22.4 ± 2.2 × 10^6

**Q.** What about the “Karyocyte Count in Femoral Bone Marrow” value ([4]; scheme 2, 2 Times, Day 7) of the same substance?
**A.** 14.9 ± 1.7 × 10^6

**Q.** What about the “Karyocyte Count in Femoral Bone Marrow” value ([4]; scheme 2, 2 Times, Day 11) of the same substance?
**A.** 18.6 ± 2.3 × 10^6

**Q.** And the “Karyocyte Count in Femoral Bone Marrow” value ([4]; scheme 2, 2 Times, Day 14)?
**A.** 14.1 ± 1.7 × 10^6

**Q.** And the “Karyocyte Count in Femoral Bone Marrow” value ([4]; scheme 2, 2 Times, Day 18)?
**A.** 17.2 ± 1.0 × 10^6

**Q.** What about the “Karyocyte Count in Femoral Bone Marrow” value ([4]; scheme 2, 2 Times, Day 21) of the same substance?
**A.** 18.9 ± 0.6 × 10^6

**Q.** And the “Karyocyte Count in Femoral Bone Marrow” value ([4]; scheme 2, 3 Times, Day 7)?
**A.** 12.25 ± 1.3 × 10^6

**Q.** And the “Karyocyte Count in Femoral Bone Marrow” value ([4]; scheme 2, 3 Times, Day 11)?
**A.** 18.5 ± 2.9 × 10^6

**Q.** What about the “Karyocyte Count in Femoral Bone Marrow” value ([4]; scheme 2, 3 Times, Day 14) of the same substance?
**A.** 16.9 ± 0.8 × 10^6

**Q.** What about the “Karyocyte Count in Femoral Bone Marrow” value ([4]; scheme 2, 3 Times, Day 18) of the same substance?
**A.** 16.9 ± 0.8 × 10^6

**Q.** And the “Karyocyte Count in Femoral Bone Marrow” value ([4]; scheme 2, 3 Times, Day 21)?
**A.** 19.5 ± 1.6 × 10^6

**Q.** What about the “Karyocyte Count in Femoral Bone Marrow” value ([4]; scheme 2, 4 Times, Day 11) of the same substance?
**A.** 20.3 ± 1.3 × 10^6

**Q.** And the “Karyocyte Count in Femoral Bone Marrow” value ([4]; scheme 2, 4 Times, Day 14)?
**A.** 18.9 ± 0.2 × 10^6

**Q.** And the “Karyocyte Count in Femoral Bone Marrow” value ([4]; scheme 2, 4 Times, Day 18)?
**A.** 17.7 ± 1.2 × 10^6

**Q.** What about the “Karyocyte Count in Femoral Bone Marrow” value ([4]; scheme 2, 4 Times, Day 21) of the same substance?
**A.** 20.0 ± 1.8 × 10^6
